According to US11407719B2, “Anti-inflammatory agents” (Resverlogix Corp., priority 2009, dated 2022):

What was measured:
VCAM-1 mRNA = assay: Quantification of hVCAM mRNA; assay type: cell-based, human; parameters: key: Active: an active compound is one that causes a ≥20% inhibition in VCAM-1 mRNA at a concentration less than or equal to 10 μM; -1 mRNA at a concentration less than or equal to 10 μM; conditions: VCAM-1 mRNA by real-time PCR; HUVECs, 1 h pretreatment, tumor necrosis factor-α stimulation 24 h; concentration ≤10 μM
Protocol: In this example, […] in tissue culture cells was quantitated to measure the transcriptional inhibition of hVCAM when treated with a compound of the invention.
Human umbilical vein endothelial cells (HUVECs) were plated in a 96-well plate (4.0×10^3 cells/well) in 100 μL EGM media and incubated for 24 h prior to the addition of the compound of interest. The cells were pretreated for 1 h with the test compound prior to stimulation with tumor necrosis factor-α. The cells were incubated for an additional 24 h before the cells were harvested. At time of harvest, the spent media was removed from the HUVECs and rinsed in 200 μL PBS. Cell lysis solution (70 μL) was then added the cells in each well and incubated for ˜5-10 min at room temperature, to allow for complete cell lysis and detachment. mRNA was then prepared using the “mRNA Catcher PLUS plate” (Invitrogen), according to the protocol supplied. After the last wash, as much wash buffer as possible was aspirated without allowing the wells to dry. Elution buffer (E3, 70 μL) was then added to each well. mRNA was then eluted by incubating the mRNA Catcher PLUS plate with elution buffer for 5 min at 68° C. and then immediately placing the plate on ice.
(§1) The eluted mRNA so isolated was then used in a one-step quantitative real-time PCR reaction, using components of the Ultra Sense Kit together with Applied Biosystems primer-probe mixes. Real-time PCR data was analyzed, normalizing the Ct values for hVCAM to an internal control, prior to determining the fold induction of each unknown sample, relative to the control.

hIL-6 mRNA = assay: Quantification of hIL-6 mRNA; assay type: cell-based, human; parameters: key: Active: an active compound is one that causes a ≥20% inhibition in IL-6 mRNA at a concentration less than or equal to 10 μM; conditions: IL-6 mRNA by real-time PCR; differentiated U937 cells, 1 h pretreatment, lipopolysaccharide stimulation 3 h; concentration ≤10 μM
Protocol: In this example, […] in tissue culture cells was quantitated to measure the transcriptional inhibition of hIL-6 when treated with a compound of the invention.
A human leukemic monocyte lymphoma cell line (U937) was plated (3.2×10^5 cells per well) in a 96-well plate in 100 μL RPMI-1640, and differentiated for 3 days prior to the addition of the compound of interest. The cells were pretreated for 1 h with the test compound prior to stimulation with lipolysaccharide from Escherichia coli. The cells were incubated at 37° C. for 3 h before the cells were harvested. At time of harvest, the spent media was removed from the cells and the cells were rinsed in 200 μL PBS. Cell lysis solution (70 μL) was added the cells in each well and incubated for 5-10 min at room temperature, to allow for complete cell lysis and detachment. mRNA was then prepared using the “mRNA Catcher PLUS plate” (Invitrogen), according to the protocol supplied. After the last wash, as much wash buffer as possible was aspirated without allowing the wells to dry. Elution buffer (E3, 70 μL) was then added to each well. mRNA was then eluted by incubating the mRNA Catcher PLUS plate with Elution Buffer for 5 min at 68° C. and then immediately placing the plate on ice.
as §1, with “mRNA” for “mRNA so”, “hIL-6” for “hVCAM”

Compound	Inhibition of VCAM-1 expression (VCAM-1 mRNA)	Inhibition of IL-6 expression (hIL-6 mRNA)
COc1cc(OC)c2c(=O)[nH]c(-c3cc(C)c(OCCN4CCOCC4)c(C)c3)nc2c1 [2-(3,5-dimethyl-4-(2-morpholinoethoxy)phenyl)-5,7-dimethoxyquinazolin-4(3H)-one]	Active	Active
COc1cc(OC)c2c(=O)[nH]c(-c3cc(C)c(OCCN4Cc5ccccc5C4)c(C)c3)nc2c1 [2-(4-(2-(Isoindolin-2-yl)ethoxy)-3,5-dimethylphenyl)-5,7-dimethoxyquinazolin-4(3H)-one]	Active	Active
COc1cc(OC)c2c(=O)[nH]c(-c3ccc(N4CCC(NC(C)=O)C4)cc3)nc2c1 (stereo not shown) [N-(1-(4-(5,7-Dimethoxy-4-oxo-3,4-dihydroquinazolin-2-yl)phenyl)pyrrolidin-3-yl)acetamide]	Active	Active
COc1cc(OC)c2c(=O)[nH]c(-c3cc(C)c(OC[C@@H]4CCC(=O)N4)c(C)c3)nc2c1 [(S)-2-(3,5-Dimethyl-4-((5-oxopyrrolidin-2-yl)methoxy)phenyl)-5,7-dimethoxyquinazolin-4(3H)-one]	Active	Active
COc1cc(OC)c2c(=O)[nH]c(-c3ccc(N4CCC(NC(=O)c5ccccc5)CC4)cc3)nc2c1 [N-(1-(4-(5,7-Dimethoxy-4-oxo-3,4-dihydroquinazolin-2-yl)phenyl)piperidin-4-yl)benzamide]	Active	Active
COc1cc(OC)c2c(=O)[nH]c(-c3ccc(N4CCN(C(=O)c5cc(Cl)sc5Cl)CC4)cc3)nc2c1 [2-(4-(4-(2,5-Dichlorothiophene-3-carbonyl)piperazin-1-yl)phenyl)-5,7-dimethoxyquinazolin-4(3H)-one]	Active	Active
COc1cc2nc(-c3ccc(N(C)C)c4ccccc34)[nH]c(=O)c2cc1OC [2-(4-(dimethylamino)naphthalen-1-yl)-6,7-dimethoxyquinazolin-4(3H)-one]	Active	Active
COc1cc(OC)c2c(=O)[nH]c(-c3ccc(Nc4cccnc4)cc3)nc2c1 [5,7-Dimethoxy-2-(4-(pyridin-3-ylamino)phenyl)quinazolin-4(3H)-one]	Active	Active
COc1cc(OC)c2c(=O)[nH]c(-c3ccc4[nH]c(CCN5CCCC5)cc4c3)nc2c1 [5,7-Dimethoxy-2-(2-(2-(pyrrolidin-1-yl)ethyl)-1H-indol-5-yl)quinazolin-4(3H)-one]	Active	Active
COc1cc(OC)c2c(=O)[nH]c(-c3ccc(N4CCN(C(=O)c5ccccc5)CC4)cc3)nc2c1 [2-(4-(4-Benzoylpiperazin-1-yl)phenyl)-5,7-dimethoxyquinazolin-4(3H)-one]	Active	Active
COc1cc(OC)c2c(=O)[nH]c(-c3ccc(N4CCN(C(C)=O)C(C)C4)cc3)nc2c1 (stereo not shown) [2-(4-(4-Acetyl-3-methylpiperazin-1-yl)phenyl)-5,7-dimethoxyquinazolin-4(3H)-one]	Active	Active
COc1cc(OC)c2c(=O)[nH]c(-c3ccc(N4CCCN(C)CC4)cc3)nc2c1 [5,7-Dimethoxy-2-(4-(4-methyl-1,4-diazepan-1-yl)phenyl)quinazolin-4(3H)-one]	Active	Active
COc1cc(OC)c2c(=O)[nH]c(-c3ccc(N4CCN(C(=O)c5ccc(F)cc5)CC4)cc3)nc2c1 [2-(4-(4-(4-Fluorobenzoyl)piperazin-1-yl)phenyl)-5,7-dimethoxyquinazolin-4(3H)-one]	Active	Active
COc1cc(OC)c2c(=O)[nH]c(-c3ccc(N4CCCNCC4)cc3)nc2c1 [2-(4-(1,4-Diazepan-1-yl)phenyl)-5,7-dimethoxyquinazolin-4(3H)-one]	Active	Active
COc1cccc2c(=O)[nH]c(-c3ccc(N4CCN(C(C)C)CC4)cc3)nc12 [2-(4-(4-Isopropylpiperazin-1-yl)phenyl)-8-methoxyquinazolin-4(3H)-one]	Active	Active
CCN1CCN(Cc2ccc(-c3nc4cc(OC)cc(OC)c4c(=O)[nH]3)cc2)CC1 [2-(4-((4-ethylpiperazin-1-yl)methyl)phenyl)-5,7-dimethoxyquinazolin-4(3H)-one]	Active	Active
COc1cc(OC)c2c(=O)[nH]c(-c3cc(C)c(OCCN4CCCC4)c(C)c3)nc2c1 [2-(3,5-dimethyl-4-(2-(pyrrolidin-1-yl)ethoxy)phenyl)-5,7-dimethoxyquinazolin-4(3H)-one]	Active	Active
O=c1[nH]c(-c2ccc(N3CCN(CC(F)(F)F)CC3)cc2)nc2ccccc12 [2-(4-(4-(2,2,2-Trifluoroethyl)piperazin-1-yl)phenyl)quinazolin-4(3H)-one]	Inactive	Active
COc1cccc(-c2nc3cc(OC)cc(OC)c3c(=O)[nH]2)c1 [5,7-Dimethoxy-2-(3-methoxyphenyl)quinazolin-4(3H)-one]	Active	Active
COc1cc(OC)c2c(=O)[nH]c(-c3ccc(N4CCC(NCc5ccccc5)CC4)nc3)nc2c1 [2-(6-(4-(Benzylamino)piperidin-1-yl)pyridin-3-yl)-5,7-dimethoxyquinazolin-4(3H)-one]	–	Active
COc1cc(OC)c2c(=O)[nH]c(-c3ccc(N4CCN(C(=O)c5ccncc5)CC4)cc3)nc2c1 [2-(4-(4-Isonicotinoylpiperazin-1-yl)phenyl)-5,7-dimethoxyquinazolin-4(3H)-one]	–	Active
COc1cc(OC)c2c(=O)[nH]c(-c3ccc(CN4CCOCC4)cc3)nc2c1 [5,7-dimethoxy-2-(4-(morpholinomethyl)phenyl)quinazolin-4(3H)-one]	–	Active
COc1cc(OC)c2c(=O)[nH]c(-c3ccc(N4CCNC(C)C4)cc3)nc2c1 (stereo not shown) [5,7-Dimethoxy-2-(4-(3-methylpiperazin-1-yl)phenyl)quinazolin-4(3H)-one]	–	Active
COc1cc(OC)c2c(=O)[nH]c(-c3ccc(N4CCC(NC(C)C)CC4)cc3)nc2c1 [2-(4-(4-(Isopropylamino)piperidin-1-yl)phenyl)-5,7-dimethoxyquinazolin-4(3H)-one]	–	Active
COc1cc(OC)c2c(=O)[nH]c(-c3ccc(N4CCN(C(=O)c5ccccn5)CC4)cc3)nc2c1 [5,7-Dimethoxy-2-(4-(4-picolinoylpiperazin-1-yl)phenyl)quinazolin-4(3H)-one]	–	Active
COc1cc(OC)c2c(=O)[nH]c(-c3ccc(OC4CCN(C(=O)N(C)C)CC4)cc3)nc2c1 [4-(4-(5,7-Dimethoxy-4-oxo-3,4-dihydroquinazolin-2-yl)phenoxy)-N,N-dimethylpiperidine-1-carboxamide]	–	Active
COc1cc(OC)c2c(=O)[nH]c(-c3ccc(Nc4ccncc4)cc3)nc2c1 [5,7-Dimethoxy-2-(4-(pyridin-4-ylamino)phenyl)quinazolin-4(3H)-one]	–	Active
